Test results: US10870634B2, “Histone demethylase inhibitors” (CELGENE QUANTICEL RESEARCH, INC., priority 2016, dated 2020)

target: T1, FBXL10 (Homo sapiens, UniProt Q8NHM5); assay: FBXL10 in vitro enzyme inhibition assay (AlphaScreen); assay type: biochemical; conditions: 0.3 nM FBXL10, 30 nM H3K36me2-biotin peptide, 0.2 μM alpha-ketoglutaric acid
T1 construct: purchased BPS Bioscience 50120
T1 sequence (Q8NHM5 1-650): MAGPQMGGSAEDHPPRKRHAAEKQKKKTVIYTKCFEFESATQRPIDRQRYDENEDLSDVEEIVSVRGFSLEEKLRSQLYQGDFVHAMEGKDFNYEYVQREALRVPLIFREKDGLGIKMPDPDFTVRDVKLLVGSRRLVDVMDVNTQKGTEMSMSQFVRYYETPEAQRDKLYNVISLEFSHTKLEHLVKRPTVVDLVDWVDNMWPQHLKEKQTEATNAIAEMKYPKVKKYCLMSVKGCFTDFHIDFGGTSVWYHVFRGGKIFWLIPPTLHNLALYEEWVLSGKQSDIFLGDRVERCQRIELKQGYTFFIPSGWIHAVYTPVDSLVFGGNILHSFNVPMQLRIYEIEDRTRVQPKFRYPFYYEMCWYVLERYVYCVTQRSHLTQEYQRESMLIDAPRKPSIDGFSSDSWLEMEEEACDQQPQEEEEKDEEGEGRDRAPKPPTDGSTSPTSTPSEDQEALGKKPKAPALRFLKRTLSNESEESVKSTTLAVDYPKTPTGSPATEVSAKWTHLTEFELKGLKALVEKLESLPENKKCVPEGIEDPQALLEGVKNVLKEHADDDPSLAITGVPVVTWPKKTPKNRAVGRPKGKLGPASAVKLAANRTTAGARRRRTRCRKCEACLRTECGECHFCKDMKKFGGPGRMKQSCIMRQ
Excerpt: This assay determines the ability of a test compound to inhibit FBXL11, FRXL10, and PHF8 demethylase activity. Baculovirus-expressed FBXL11 (GenBank Accession # NM_012308, AA1-1162) was purchased from BPS Bioscience (Cat #50102). Baculovirus-expressed FBXL10 (GenBank Accession # NM_032590, AA 1-650) was purchased from BPS Bioscience (Cat #50120), Baculovirus-expressed PHF8 (GenBank Accession NP_055922.1) was purchased from Active Motif (Cat #31435).
The ability of test compounds to inhibit the activity of FBXM10 was determined in 384-well plate format under the following reaction conditions: 0.3 nM FBXL10, 30 nM H3K36me2-biotin labeled peptide (Anaspec cat #64442), 0.2 μM alpha-ketoglutaric acid in assay buffer of 50 mM HEPES, pH 7.3, 0.005% Brij35, 0.5 mM TCEP, 0.2 mg/ml BSA, 50 μM sodium L-ascorbate, 5 μM ammonium ironll sulfate. Reaction product was determined quantitatively by AlphaScreen detection after the addition of detection reagents anti-H3K36me1 antibody, AlphaScreen® Streptavidin-coated Donor beads, and AlphaScreen® Protein A Acceptor beads in 50 mM HEPES, pH 7.3, 10 mM NaCl, 0.005% Brij35, 5 mM EDTA, 2 mg/ml BSA to a final 10 μg/ml beads.
The assay reaction was initiated by the following: 3 μl of the mixture of 90 nM H3K36me2-biotin labeled peptide and 0.6 μM alpha-ketoglutaric acid with 3 μl of 11-point serial diluted inhibitor in 3% DMSO were added to each well of 384-well Proxiplate (Perkin Elmer), followed by e addition of 3 μl of 0.9 nM FBXL10 to initiate the reaction. The reaction mixture was incubated at room temp for 1 hr. and terminated by the addition of 3 μl of appropriate dilution of anti-H3K36me1 antibody in 50 mM HEPES, pH 7.3, 10 mM NaCl, 0.005% Brij35, 5 mM EDTA, and 2 mg/ml BSA. […] Plates were read by EnVision Multilabel Reader in AlphaScreen mode after minimum 2 hr incubation at room temp. […]
The ability to inhibit demethylase activity was quantified and the respective IC50 value was determined for substituted triazolylpyridine derivative compounds. […]

Row | IC50 | Compound
1 | 100 to 1000 nM | Fc1cnccc1-c1nn[nH]c1C(F)(F)F [Example 1, 3-fluoro-4-[5-(trifluoromethyl)-1H-1,2,3-triazol-4-yl]pyridine]
2 | 1000 to 10000 nM | Fc1ccc(Cl)cc1Nc1cnccc1-c1nn[nH]c1C(F)(F)F [Example 2, N-(5-chloro-2-fluorophenyl)-4-[5-(trifluoromethyl)-1H-1,2,3-triazol-4-yl]pyridin-3-amine]
3 | 1000 to 10000 nM | FC(F)(F)c1[nH]nnc1-c1ccncc1NCC1CCCc2ccccc21 (stereo not drawn) [Example 3, N-[(1,2,3,4-tetrahydronaphthalen-1-yl)methyl]-4-[5-(trifluoromethyl)-1H-1,2,3-triazol-4-yl]pyridine-3-amine]
